The source of these data is patent US8709821B2, “Luminescent substrate for liciferase” (The University of Electro-Communications, priority 2008, dated 2014).

Values joined by “and” are separate entries in the source; they are usually repeats but may differ in a detail not shown here. Identical values can stand only once.

Series [1] addresses T1, luciferase (derived from Photinus pyralis of North America product firefly) (Photinus pyralis, UniProt P08659).
T1 construct: purchased Sigma-Aldrich Corporation or Promega KK
The series is described as follows: Measurement of the bioluminescence spectra (luminescent spectrum of substrate with luciferase, ATP-Mg). The series is classed as biochemical. The following applies: for color of the luminescence: FIG. 1; for luminescent wavelength (maximum wavelength of the bioluminescence spectrum): potassium phosphate buffer pH 8.0, substrate solution 2.5 mM, exposure 60 seconds. The method, then: Measurement of Luminescent Spectrum
They were measured using feeble luminescence fluorescent spectra device AB-1850 manufactured by ATTO Co., Ltd. All the measured spectra were the spectra which calibrated with the characteristic of the detector.
For the luciferase (derived from Photinus pyralis of North America product firefly), was used the recombination type manufactured by Sigma-Aldrich Corporation or Promega KK.
For ATP-Mg the product manufactured by Sigma-Aldrich Corporation was used.
The Substrate was weighted with an electronic balance, and it was diluted. The phosphate-buffered saline (50 mM, pH 6.0) was used in the case of the chemiluminescence measurement, and t-butanol was used in the case of the bioluminescence as a solvent.
The luciferase was diluted with Tris-HCl buffer solution (50 mM, pH 8.0 s) to become 1 μg/μl and divided. This was used as stocked solution, so that was diluted to be used each time. Note that, the stock solutions were stored in a freezer of −80 degrees Celsius.
ATP-Mg was diluted in the ultra pure water.
The solution of a potassium phosphate buffer (0.5 M, pH 8.0, 20 μl), the solution of substrate (2.5 mM, 20 μl) and enzyme solution (20 μl), then ATP-Mg solution (ten mM, 40 μl) were mixed in a 200 μL of a polystyrene tube, and measured the luminescent spectrum. The enzyme solution was used at the concentration of 17 μM, provided that enzymes at 1.7 μM and at 170 μM were used in the firefly luciferin (1) and the phenol type luciferin respectively. The exposure time for the measurement of the luminescent spectrum was 60 seconds, provided that the firefly luciferin was five seconds.

The conditions of series [2]: luciferin derivative, patent document 1; cited from earlier work.
[3] abbreviates: Photinus pyralis luciferase, ATP-Mg.

As a reminder, the melting point is the temperature, or range, at which the solid turns liquid.

T1 sequence (P08659 whole entry): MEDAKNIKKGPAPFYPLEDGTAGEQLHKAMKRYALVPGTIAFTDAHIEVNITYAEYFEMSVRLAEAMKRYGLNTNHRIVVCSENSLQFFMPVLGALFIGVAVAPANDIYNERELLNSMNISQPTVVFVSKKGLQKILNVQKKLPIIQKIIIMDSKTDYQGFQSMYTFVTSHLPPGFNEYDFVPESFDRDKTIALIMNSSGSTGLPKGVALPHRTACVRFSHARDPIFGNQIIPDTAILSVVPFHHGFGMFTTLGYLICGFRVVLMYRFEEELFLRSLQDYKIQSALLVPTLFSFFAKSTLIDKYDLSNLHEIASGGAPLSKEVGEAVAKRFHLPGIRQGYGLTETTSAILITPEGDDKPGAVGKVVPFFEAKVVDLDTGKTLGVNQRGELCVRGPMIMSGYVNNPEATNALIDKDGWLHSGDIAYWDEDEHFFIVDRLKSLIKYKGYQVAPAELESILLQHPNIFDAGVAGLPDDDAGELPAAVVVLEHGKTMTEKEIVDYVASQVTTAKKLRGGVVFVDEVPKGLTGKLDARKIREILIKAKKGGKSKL

In the case of `CN(C)c1ccc(C2=N[C@@H](C(=O)O)CS2)cc1` [analogs IV, dimethyl aniline type luciferin], the “color of the luminescence” value in series [1] was “red”. Also, the “luminescent wavelength (maximum wavelength of the bioluminescence spectrum)” value (“luminescent wavelength” below) in series [1] (Photinus pyralis luciferase, ATP-Mg, listed as IV) was 680 nm and 445 nm; in series [1] (Photinus pyralis luciferase, ATP-Mg, listed as dimethyl aniline type luciferin), “about 445 nm”.

In the case of `O=C(O)[C@H]1CSC(/C=C/c2ccc(O)cc2)=N1` [analogs 8], the melting point is 138 to 140 °C (dec.). Also, the “luminescent wavelength” value in series [1] (setting [3]) amounted to 520 nm.

Turning to `O=C(O)[C@H]1CSC(/C=C/c2cccc(O)c2)=N1` [analogs 9], the melting point is 163 to 165 °C (dec.). The “luminescent activity as substrate” value in series [1] (Photinus pyralis luciferase, ATP-Mg, pH 8.0) is on record as “did not luminescent”.

`Nc1ccc2nc(C3=N[C@@H](C(=O)O)CS3)sc2c1` [Aminoluciferin]: in series [2], the luminescence wavelength result is “About 610 nm”.

Regarding `CN(C)c1ccc(/C=C/C2=N[C@@H](C(=O)O)CS2)cc1` [analogs III, dimethyl aniline-monoene type luciferin], the “color of the luminescence” value in series [1] is “yellow green”. The “luminescent wavelength” value in series [1] (setting [3]) stood at 565 nm.

As for `CN(C)c1ccc(/C=C/C=C/C2=N[C@@H](C(=O)O)CS2)cc1` [analogs II, dimethyl aniline-diene type luciferin], the “color of the luminescence” value in series [1] is recorded as “blue”. For the same compound, in series [1] (setting [3]), the “luminescent wavelength” value is 445 nm and > 680 nm.

Turning to `O=C(O)[C@H]1CSC(c2ccc(O)cc2)=N1` [analogs 7], the melting point was 200 to 204 °C (dec.). Further, in series [1] (setting [3]), the “luminescent wavelength” value is on record as 415 nm.
